Experiments:
Test in all cases: relative viability (nuclei count vs DMSO), 5 days (fraction); higher = more cells survive
[1] = compound: COc1cc2nccc(Oc3ccc(NC(=O)C4(C(=O)Nc5ccc(F)cc5)CC4)cc3)c2cc1OC [Cabozantinib] + N=C(N)NC(=N)NCCc1ccccc1 [Phenformin] (partner 250 µM)
Procedure, shortened: (§1)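 Relative viability divides the nuclei count in treated wells by that in vehicle wells. Lung cancer cell lines were seeded in 1536-well plates, dosed by pin tool the next day, and fixed and stained after 5 days in one step with final 0.05% Triton X-100, 1% formaldehyde and 1 ug/ml Hoechst. Dosing was a single drug or a fixed anchor-drug dose plus five library-drug doses (not always all listed) in √10 steps, and values are medians of duplicate plates imaged at 4×.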

Kobe2602 + Bortezomib = compound: C1=CC(=CC=C1NC(=S)NNC2=C(C=C(C=C2[N+](=O)[O-])C(F)(F)F)[N+](=O)[O-])F [Kobe2602] + CC(C)C[C@H](NC(=O)[C@H](Cc1ccccc1)NC(=O)c1cnccn1)B(O)O [Bortezomib] (partner 0.002 µM)
Procedure, shortened: as §1

[2] = compound: COc1cc2nccc(Oc3ccc(NC(=O)C4(C(=O)Nc5ccc(F)cc5)CC4)cc3)c2cc1OC [Cabozantinib] + Nc1ncn([C@H]2C[C@H](O)[C@@H](CO)O2)c(=O)n1 [Decitabine] (partner 2 µM)
Procedure, shortened: as §1

Kobe2602 + Tozasertib = compound: C1=CC(=CC=C1NC(=S)NNC2=C(C=C(C=C2[N+](=O)[O-])C(F)(F)F)[N+](=O)[O-])F [Kobe2602] + Cc1cc(Nc2cc(N3CCN(C)CC3)nc(Sc3ccc(NC(=O)C4CC4)cc3)n2)n[nH]1 [Tozasertib] (partner 0.1 µM)
Procedure, shortened: as §1

Cell Line	relative viability ([1]; first compound 0.02 µM)	relative viability ([1]; first compound 0.06325 µM)	relative viability ([1]; first compound 0.2 µM)	relative viability ([1]; first compound 0.6325 µM)	relative viability ([1]; first compound 2 µM)	relative viability (Kobe2602 + Bortezomib; first compound 0.2 µM)	relative viability (Kobe2602 + Bortezomib; first compound 0.6325 µM)	relative viability (Kobe2602 + Bortezomib; first compound 2 µM)	relative viability (Kobe2602 + Bortezomib; first compound 6.325 µM)	relative viability (Kobe2602 + Bortezomib; first compound 20 µM)	relative viability ([2]; first compound 0.02 µM)	relative viability ([2]; first compound 0.06325 µM)	relative viability ([2]; first compound 0.2 µM)	relative viability ([2]; first compound 0.6325 µM)	relative viability ([2]; first compound 2 µM)	relative viability (Kobe2602 + Tozasertib; first compound 0.2 µM)	relative viability (Kobe2602 + Tozasertib; first compound 0.6325 µM)	relative viability (Kobe2602 + Tozasertib; first compound 2 µM)	relative viability (Kobe2602 + Tozasertib; first compound 6.325 µM)	relative viability (Kobe2602 + Tozasertib; first compound 20 µM)
201T	0.383	0.451	0.472	0.438	0.439	0.956	1.05	1.12	1.18	1.13	0.874	0.945	0.839	0.836	0.826	0.94	0.968	0.966	0.924	0.881
A549	0.407	0.173	0.215	0.156	0.147						0.298	0.26	0.263	0.313	0.306					
CAL-12T	0.666	0.597	0.554	0.591	0.529	0.997	1.17	0.921	0.931	0.93						0.292	0.282	0.248	0.21	0.244
Calu-6						1.11	1.04	0.945	0.971	0.951										
EBC-1						0.528	0.479	0.539	0.511	0.612										
IA-LM							0.873	0.707	0.765	0.759										
LK-2		0.508		0.396	0.607						0.182	0.369	0.336	0.301	0.267	0.174	0.188	0.189	0.174	0.174
NCI-H358	0.283	0.317	0.231	0.296	0.337						0.226	0.224	0.214	0.218	0.233	0.0888	0.122	0.0944	0.109	0.103
NCI-H522	0.692	0.657	0.633	0.637	0.716						0.577	0.655	0.564	0.74	0.654	0.68	0.644	0.552	0.592	0.568
NCI-H1299						1.01	0.982	0.986	1.07	0.995										
NCI-H1395	0.465	0.477	0.472	0.438	0.448						0.786	0.741	0.682	0.713	0.654	0.72	0.793	0.878	0.741	0.776
NCI-H1563	0.601	0.668	0.658	0.702	0.709	0.954	1.13	0.71	0.933	0.794										
NCI-H1623	0.545	0.667	0.526	0.519	0.585											0.42	0.433	0.396	0.439	0.412
NCI-H1648											0.469	0.524		0.532	0.516	0.465	0.43	0.468	0.513	0.393
NCI-H1703						0.371	0.379	0.286	0.367	0.342										
NCI-H1792		0.374	0.37	0.254	0.251	0.965	0.901	1.09	0.985	0.986		0.557	0.609	0.588	0.444					
NCI-H1793	0.347	0.441	0.303	0.326	0.296						0.4	0.555		0.469	0.489	0.279	0.305	0.292	0.417	0.278
NCI-H1944	0.17	0.213	0.193	0.208	0.204						0.477	0.483	0.42	0.481	0.466	0.264	0.267	0.262	0.245	0.279
NCI-H2170	0.468	0.418	0.425	0.365	0.353						0.436	0.465	0.446	0.487	0.458	0.65	0.729	0.721	0.78	0.694
NCI-H2228	0.392	0.359	0.298	0.471	0.35	1.11	0.849	0.953	0.947	1.12						0.19	0.239	0.246	0.234	0.219
NCI-H2342	0.538	0.785	0.552	0.633	0.545						0.642	0.832	0.765	0.788	0.544	0.575	0.546	0.408	0.491	0.542
SK-MES-1	0.701	0.688	0.705	0.667	0.631						0.449	0.412	0.373	0.431	0.399	0.822	0.878	0.791	0.737	0.55
SW 900	0.692	0.668	0.662	0.552	0.408						0.44	0.508	0.412	0.475	0.556	0.561	0.621	0.458	0.379	0.512
